Our source for the IC50 values is ChEMBL document CHEMBL4020810, “Janus-Associated Kinase 1 (JAK1) Inhibitors as Potential Treatment for Immune Disorders” (ACS Med Chem Lett, 2017).

Molecules are shown by their SMILES. Bounds are passed on as bounds.

In assay [1] the target is T1, Tyrosine-protein kinase JAK1 (Homo sapiens, UniProt P23458). Nature of the assay: Inhibition of N-terminal GST fused human recombinant JAK1 (866 to 1154 amino acids) expressed in insect cells using ATP and peptide substrate (FITC-C6-KKHTDDGYMPMSPGVA-NH2.
T1 sequence (P23458 whole entry, the tested form may be a part): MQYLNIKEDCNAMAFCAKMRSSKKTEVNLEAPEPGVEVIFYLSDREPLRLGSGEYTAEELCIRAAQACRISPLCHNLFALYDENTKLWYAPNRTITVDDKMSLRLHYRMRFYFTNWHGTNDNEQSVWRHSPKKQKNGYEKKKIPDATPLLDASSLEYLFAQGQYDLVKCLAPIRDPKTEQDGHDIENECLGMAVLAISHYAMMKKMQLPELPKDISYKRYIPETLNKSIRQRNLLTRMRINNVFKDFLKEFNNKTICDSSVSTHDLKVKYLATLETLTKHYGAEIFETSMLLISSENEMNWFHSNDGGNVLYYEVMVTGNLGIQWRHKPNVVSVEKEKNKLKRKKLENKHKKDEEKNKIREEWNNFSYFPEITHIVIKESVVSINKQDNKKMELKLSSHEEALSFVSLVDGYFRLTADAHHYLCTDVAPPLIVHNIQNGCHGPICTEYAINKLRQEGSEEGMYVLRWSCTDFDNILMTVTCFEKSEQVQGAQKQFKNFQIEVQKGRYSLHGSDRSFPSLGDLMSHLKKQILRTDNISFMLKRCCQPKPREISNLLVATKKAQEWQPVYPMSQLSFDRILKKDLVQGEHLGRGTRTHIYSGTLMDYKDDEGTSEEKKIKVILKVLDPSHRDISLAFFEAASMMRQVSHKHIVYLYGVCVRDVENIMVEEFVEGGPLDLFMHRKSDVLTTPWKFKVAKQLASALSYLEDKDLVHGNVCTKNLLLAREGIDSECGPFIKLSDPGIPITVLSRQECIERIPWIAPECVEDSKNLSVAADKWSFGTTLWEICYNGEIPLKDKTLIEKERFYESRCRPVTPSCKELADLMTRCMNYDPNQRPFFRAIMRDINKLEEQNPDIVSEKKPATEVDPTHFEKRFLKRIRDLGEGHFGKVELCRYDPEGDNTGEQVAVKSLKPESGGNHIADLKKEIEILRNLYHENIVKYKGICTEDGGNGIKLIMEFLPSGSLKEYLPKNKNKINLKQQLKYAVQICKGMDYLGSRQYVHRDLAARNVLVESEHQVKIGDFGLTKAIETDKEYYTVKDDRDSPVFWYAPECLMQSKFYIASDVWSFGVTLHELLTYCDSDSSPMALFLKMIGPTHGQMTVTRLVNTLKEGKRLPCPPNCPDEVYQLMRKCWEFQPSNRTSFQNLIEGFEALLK
Assay [2] concerns the target T2, Tyrosine-protein kinase JAK3 (Homo sapiens, UniProt P52333).
T2 sequence (P52333 whole entry): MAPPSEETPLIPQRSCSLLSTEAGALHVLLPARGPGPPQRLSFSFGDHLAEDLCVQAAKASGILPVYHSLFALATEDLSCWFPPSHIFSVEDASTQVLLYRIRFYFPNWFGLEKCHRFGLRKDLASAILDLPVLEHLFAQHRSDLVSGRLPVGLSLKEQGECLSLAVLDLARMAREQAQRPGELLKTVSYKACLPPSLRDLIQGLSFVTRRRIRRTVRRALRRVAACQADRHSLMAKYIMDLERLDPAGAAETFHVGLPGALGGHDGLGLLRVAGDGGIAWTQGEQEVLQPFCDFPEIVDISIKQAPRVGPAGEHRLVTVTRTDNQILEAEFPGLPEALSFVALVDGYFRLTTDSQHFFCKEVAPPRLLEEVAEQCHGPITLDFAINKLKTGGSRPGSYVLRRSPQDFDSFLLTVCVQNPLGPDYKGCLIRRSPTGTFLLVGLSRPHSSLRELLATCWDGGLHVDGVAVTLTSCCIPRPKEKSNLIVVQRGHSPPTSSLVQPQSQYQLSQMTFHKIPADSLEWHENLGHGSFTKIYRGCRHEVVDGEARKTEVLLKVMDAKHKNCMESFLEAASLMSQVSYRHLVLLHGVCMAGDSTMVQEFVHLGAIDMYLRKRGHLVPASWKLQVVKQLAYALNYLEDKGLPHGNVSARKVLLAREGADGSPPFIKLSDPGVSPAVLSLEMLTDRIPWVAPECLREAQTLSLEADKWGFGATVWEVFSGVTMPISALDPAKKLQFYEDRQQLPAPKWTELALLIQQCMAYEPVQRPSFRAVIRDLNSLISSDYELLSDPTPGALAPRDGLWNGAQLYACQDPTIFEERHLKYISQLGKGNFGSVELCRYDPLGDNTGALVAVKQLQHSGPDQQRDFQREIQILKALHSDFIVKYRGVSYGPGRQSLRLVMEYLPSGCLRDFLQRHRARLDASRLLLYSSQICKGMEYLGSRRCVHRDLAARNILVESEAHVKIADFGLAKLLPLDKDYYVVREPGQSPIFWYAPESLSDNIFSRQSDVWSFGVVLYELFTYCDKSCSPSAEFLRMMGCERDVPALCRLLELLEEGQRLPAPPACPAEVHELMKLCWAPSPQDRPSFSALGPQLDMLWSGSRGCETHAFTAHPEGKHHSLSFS
Description: Inhibition of N-terminal GST fused recombinant JAK3 (781 to 1124 amino acids) (unknown origin) expressed in insect cells using ATP and peptide substrate (5FAM-GEEPLYWSFPAKKK-NH2.

Assay [3] has as its target T1, Tyrosine-protein kinase JAK1. Description: Inhibition of JAK1 in human NCI-H1975 cells assessed as reduction in STAT3 phosphorylation incubated for 2 hrs. It counts as cell-based.

One may read the IC50 as the concentration that gives 50% inhibition. Regarding `COC[C@H](C(=O)Nc1cccc2c(-c3nc(Nc4cn(C)nc4C)ncc3F)c[nH]c12)N1CCN(C)CC1`, the IC50 is less than 0.003 µM in assay [1], greater than 30 µM in assay [2] and 0.0566 µM in assay [3].
Regarding `COc1nn(C)cc1Nc1ncc(Cl)c(-c2c[nH]c3c(NC(=O)[C@@H](C)N4CCN(C)CC4)cccc23)n1`, the IC50 in assay [3] stood at 0.0579 µM.
Turning to `CCOc1nn(C)cc1Nc1ncc(F)c(-c2c[nH]c3c(NC(=O)[C@H](C)N4CCN(C)C[C@@H]4C)cccc23)n1`, the IC50 in assay [3] is greater than 3 µM.
For `CC[C@H](C(=O)Nc1cccc2c(-c3nc(Nc4cn(C)nc4C)ncc3F)c[nH]c12)N1CCN(C)CC1`, the IC50 in assay [1] is less than 0.004 µM; in assay [2] it was greater than 30 µM; in assay [3], 0.0751 µM.
Regarding `CCOc1nn(C)cc1Nc1ncc(C)c(-c2c[nH]c3c(NC(=O)[C@@H](CC)N4CCN(C)CC4)cccc23)n1`, the IC50 in assay [1] was less than 0.006 µM; in assay [2], greater than 30 µM; in assay [3], 0.104 µM.
Regarding `COc1nn(C)cc1Nc1nccc(-c2c[nH]c3c(NC(=O)[C@@H](C)N4CCN(C)C[C@@H]4C)cccc23)n1`, in assay [3], the IC50 is 0.643 µM.
